Reference: patent US12042481B2, “Use of (1R,5S)-(+)-1-(naphthalen-2-yl)-3-azabicyclo[3.1.0]hexane in the treatment of conditions affected by monoamine neurotransmitters” (priority 2011, dated 2024)
pIC50: −log10 of the molar value.

Assays:
[1] = molecular target: T1, recombinant human 5-HT transporter (Homo sapiens, UniProt P31645); assay: Inhibition of [3H]serotonin uptake in HEK-293 cells transfected with the 5-HT uptake transporter; format: cell-based
T1 construct: host or cells: HEK-293
Experimental: (§1) The ability of (1R,5S)-(+)-1-(naphthalen-2-yl)-3-azabicyclo[3.1.0]hexane for inhibiting transport of norepinephrine (NE) and/or dopamine (DA) and/or serotonin (5-HT) was evaluated using cell lines (such as the HEK 293 cell line) that stably express recombinant human NE, DA, and 5-HT transporters, respectively. Techniques for stably transfecting mammalian cell lines with neurotransmitter transporters and measuring the effects of drugs on amine uptake have been described in the literature (e.g., Eshleman A J, J Pharmacol Exp Ther 289:877-885, 1999) and are well known to those skilled in the art
(§2) Monoamine uptake was determined in MDCK, CHO-K1, and HEK-293 cell lines respectively transfected with NE, DA, and 5-HT uptake transporters by MDS Pharma Services (Taipei, Taiwan 112, R. O. C.). The cells were incubated in 5 mM Tris-HCl, and 7.5 mM HEPES buffer, pH 7.1, containing 120 mM NaCl, 5.4 mM KCl, 1.2 mM CaCl2, 1.2 mM MgSO4, 5 mM D-glucose, and 1 mM Ascorbic Acid. The cellular homogenates were incubated with radioligands and various concentrations of drugs for 10 minutes at 25° C. The [^3H]-radioligands incorporated into the cells were determined according to published methods using liquid scintillation counting (Perovic and Müller 1995; Eshleman et al., 1999). […]

[2] = molecular target: T2, recombinant human DA transporter (Homo sapiens, UniProt Q01959); assay: Inhibition of [3H]dopamine uptake in CHO-K1 cells transfected with the DA uptake transporter; format: cell-based
T2 construct: host or cells: CHO-K1
T2 sequence (Q01959 whole entry): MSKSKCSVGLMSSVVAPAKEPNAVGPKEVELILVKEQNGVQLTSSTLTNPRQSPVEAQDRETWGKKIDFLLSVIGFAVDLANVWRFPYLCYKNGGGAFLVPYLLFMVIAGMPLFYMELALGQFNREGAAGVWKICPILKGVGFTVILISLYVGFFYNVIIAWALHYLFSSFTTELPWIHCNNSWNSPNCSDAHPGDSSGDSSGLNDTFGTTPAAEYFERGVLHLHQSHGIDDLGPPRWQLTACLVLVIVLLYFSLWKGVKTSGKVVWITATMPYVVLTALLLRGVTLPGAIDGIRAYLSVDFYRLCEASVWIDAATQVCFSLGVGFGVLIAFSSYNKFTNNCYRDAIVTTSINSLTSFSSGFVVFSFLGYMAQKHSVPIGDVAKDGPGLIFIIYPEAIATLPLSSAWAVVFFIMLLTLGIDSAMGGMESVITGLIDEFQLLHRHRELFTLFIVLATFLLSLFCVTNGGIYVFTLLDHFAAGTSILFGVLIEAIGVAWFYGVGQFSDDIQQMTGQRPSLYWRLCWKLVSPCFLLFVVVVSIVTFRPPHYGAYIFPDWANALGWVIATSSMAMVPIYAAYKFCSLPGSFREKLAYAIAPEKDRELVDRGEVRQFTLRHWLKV
Experimental: as §1, §2

[3] = test system: monoamine uptake transporters; assay: Microdialysis in rat prefrontal cortex (extracellular NE, DA, 5-HT); format: in vivo
Experimental: To evaluate the effect of (1R,5S)-(+)-1-(naphthalen-2-yl)-3-azabicyclo[3.1.0]hexane on monoamine uptake transporters in vivo, microdialysis studies were performed in rat brain regions.
Microdialysis studies were conducted using male Wistar rats (250-300 g) bred at the Institute of Pharmacology, the Polish Academy of Sciences, Krakow, Poland. The rats (250-300 g) were housed on a 12 h/12 h light/dark cycle at a constant temperature and humidity, and were provided with food and water ad libitum. The microdialysis procedure has been previously described (Popik et al., 2006). Briefly, the rats were anaesthetized with ketamine (75 mg/kg IM) and xylazine (10 mg/kg IM), placed in a stereotaxic apparatus (David Kopf Instruments, Tujunga, CA, USA) with their skulls exposed. Small holes were drilled in the skull for insertion of the vertical microdialysis probes into the prefrontal cortex and striatum, respectively using the following coordinates: 2.9 mm anterior from the bregma, 0.8 mm lateral from the sagittal suture and −4.5 ventral from the dura surface (prefrontal cortex); 1.8 mm anterior from the bregma, 2.7 mm lateral from the sagittal suture and −7.0 mm ventral from the dura surface (striatum) (Paxinos and Watson, 1998). Microdialysis probes were constructed by inserting two fused silica tubes (30 and 35 mm long, 150 μm o.d.; Polymicro Technologies Inc., Phoenix, AZ, USA) into a microdialysis fiber (220 μm o.d.; AN69, Hospal, Bologna, Italy). The tube assembly was placed in a stainless steel cannula (22 G, 10 mm) forming the shaft of the probe. Portions of the inlet and outlet tubes were individually placed inside polyethylene PE-10 tubing and were glued for protection. The free end of the dialysis fibre was sealed, and 3 mm of the exposed length used for dialysis in prefrontal cortex and 4 mm for striatum. One day after the surgery and probe implantation, the inlet of the dialysis probes was connected to a syringe pump (BAS, IN, USA) which delivered an artificial cerebrospinal fluid (aCSF) composed of [in mM]: NaCl 145, KCl 2.7, MgCl2 1.0, CaCl2 1.2; pH=7.4 at a flow rate of 1.5 μl/min. After a two hour rinsing period to stabilize the extracellular level of neurotransmitters, 3-4 baseline samples were collected in 20 minute sampling periods. Next, (1R,5S)-(+)-1-(naphthalen-2-yl)-3-azabicyclo[3.1.0]hexane (dissolved in 0.9% saline solution) at doses of 10 or 20 mg/kg intraperioneally (i.p.) was administered to the animals at 4 ml/kg and consequent dialysate fractions were collected every 20 min for 3 hrs. At the end of the experiments the rats were sacrificed and their brains were histologically examined to validate the correct probe placement
Dopamine, and serotonin (5-HT) were analysed by HPLC with electrochemical detection. Chromatography was performed using an LC-10 AD pump (Shimadzu Europa GmbH, Warszawa, Poland), an LC-4B amperometric detector with a cross-flow detector cell (BAS, IN, USA) and BDS-Hypersil C18 analytical column (3×100 mm, 3 μm, Thermo Electron Corp., UK). The mobile phase was composed of 0.1 M monochloracetic acid adjusted to pH=3.7 with 3 M sodium hydroxide, 0.5 mM EDTA, 25 mg/L 1-octanesulfonic acid sodium salt, 5.7% methanol, and 2.5% acetonitrile. The flow rate was 0.5 ml/min, and the applied potential of a 3 mm glassy carbon electrode was +600 mV with a sensitivity of 2 nA/V. Norepinephrine was measured using HPLC system equipped with a P580 pump (Dionex, CA, USA) connected to a BAS injection valve with a 10 μI injection loop and a BDS-Hypersil analytical column (2.0×100 mm, a 3 μm, Thermo Electron Corp., UK). The mobile phase was composed of 0.05 M potassium dihydrogen phosphate (adjusted to pH=3.7 with ortho-phosphoric acid), 0.5 mM EDTA, 150 mg/L 1-octanesulfonic acid sodium salt, 10 mM NaCl, and 1.2% acetonitrile. The flow rate was 180 μl/min. NE in the dialysates was detected with a BAS UniJet radial flow detector cell coupled to a LC-4B amperometric detector (BAS, IN, USA). […]

T1 sequence (P31645 whole entry): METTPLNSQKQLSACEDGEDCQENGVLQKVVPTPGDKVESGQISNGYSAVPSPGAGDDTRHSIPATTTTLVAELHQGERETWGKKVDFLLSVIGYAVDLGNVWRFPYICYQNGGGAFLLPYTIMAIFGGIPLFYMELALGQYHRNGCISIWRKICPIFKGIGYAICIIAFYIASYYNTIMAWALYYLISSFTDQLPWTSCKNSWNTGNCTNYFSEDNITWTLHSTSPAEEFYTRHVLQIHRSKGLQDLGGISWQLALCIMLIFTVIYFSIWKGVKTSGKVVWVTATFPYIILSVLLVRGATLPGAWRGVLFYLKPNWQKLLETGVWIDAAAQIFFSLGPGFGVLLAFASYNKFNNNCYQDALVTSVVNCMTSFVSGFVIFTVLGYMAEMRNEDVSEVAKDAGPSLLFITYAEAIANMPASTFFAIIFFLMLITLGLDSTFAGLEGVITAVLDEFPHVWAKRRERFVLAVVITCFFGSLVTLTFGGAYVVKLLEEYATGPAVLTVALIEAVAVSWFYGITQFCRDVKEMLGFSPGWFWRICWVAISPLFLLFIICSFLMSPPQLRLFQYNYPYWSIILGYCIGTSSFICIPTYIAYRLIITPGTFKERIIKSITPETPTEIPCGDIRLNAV

Compound: c1ccc2cc([C@]34CNC[C@H]3C4)ccc2c1 [(1R,5S)-(+)-1-(naphthalen-2-yl)-3-azabicyclo[3.1.0]hexane]
- pIC50 [1]: 7.08
- pIC50 [2]: 7.42
- time by which extracellular 5-HT was markedly increased [3]: ≤ 40 min
- peak increase of extracellular NE ([3]; 10 mg/kg i.p.): over 325 % of baseline
- peak increase of extracellular NE ([3]; 20 mg/kg i.p.): > 375 % of baseline
- duration of increase of extracellular DA ([3]; 10 and 20 mg/kg i.p.): over 3 hours
- duration of increase of extracellular NE ([3]; 10 and 20 mg/kg i.p.): over 3 hours
- peak increase of extracellular 5-HT ([3]; 10 and 20 mg/kg i.p.): 300 % of baseline
- time after administration at which extracellular NE was markedly increased ([3]; 10 and 20 mg/kg i.p.): 40 min
- time by which extracellular DA was increased ([3]; 10 and 20 mg/kg i.p.): ≤ 20 min
- duration of significant increase of extracellular 5-HT ([3]; both doses 10 and 20 mg/kg i.p.): over 3 hours
- peak increase of extracellular DA ([3]; the two doses 10 and 20 mg/kg i.p.): 240-300 % of baseline
